This is an account of results in patent US20120142771A1, “BIPHENYLACETAMIDE DERIVATIVE” (Dainippon Sumitomo Pharma Co., Ltd., priority 2008, published 2012).

The structures appear in SMILES notation.

Data set [1] has as its system maximum electroshock seizure (MES) model. Description: Maximum electroshock seizure (MES) model test. Particulars: for responders at 50 mg/kg / responders at 100 mg/kg: Mus musculus, po, 1 h, Slc: ddY male mice, 3 per group, electrical stimulation 1 hour after administration, inhibition of hind limb extension, read-out: MES (positive number/tested number) (converted); for responders at 50 mg/kg: 50 mg/kg oral; for responders at 100 mg/kg: 100 mg/kg oral; for anticonvulsant action in maximum electroshock seizure (MES) model test: mice, oral 50 or 100 mg/kg, 1 hour after administration. In kind it is in vivo, mice. The method, boiled down:
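Tonic hind-limb extension was elicited by corneal electroshock (60 Hz, 25 mA, 0.2 s) 1 h after oral dosing. Test compounds were given at 50 or 100 mg/kg to groups of 3 male Slc: ddY mice (20-30 g), vehicle controls receiving 0.5% tragacanth or 0.5% methylcellulose solution.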

The subject of data set [2] is 6 Hz psychomotor seizure model. The data set is described as follows: 6 Hz psychomotor seizure model. In kind it is in vivo, mice. Particulars: mice; for ED50: Mus musculus, 6 Hz psychomotor seizure model, read-out: ED50; for ED50 / 6 Hz (Positive number/tested number): oral; for 6 Hz (Positive number/tested number): 30 minutes or 1 hour after administration. How it is done:
Test 4: Test of 6 Hz Psychomotor Seizure Model
Similar to Tests 1 and 2, Test 4 evaluates the anticonvulsant action of medicaments. However, unlike Tests 1 and 2, the animal model used herein represents clinical phenotypes of seizures resistant to existing antiepileptic drugs. […] After 30 minutes or an hour of administration, their corneas were electrically stimulated (6 Hz, 32 mA, 3 seconds) to induce symptoms of myoclonus in their forelimbs, Straub tail, and immobility. […] To the control mice, 0.5% tragacanth solution, 0.5% methylcellulose solution, or olive oil was administered.

The test system of another data set is Slc: ddY male mice. The data set is described as follows: Rotarod performance test (motor disturbance). The settings on record: 1 hour after administration, 10 mice. In kind it is in vivo. How it is done:
Test 5: Rotarod Performance Test
Test 5 evaluates whether motor disturbance is caused by medicaments. On the day before the test, Slc: ddY male mice (body weight 20-30 g) were trained so that they could walk on a rotarod apparatus for 3 minutes without falling, wherein a cylinder of 4 cm diameter is rotated with a speed of 13 rotations per minute. Test compounds were orally administered to a group consisting of 10 mice. […] When the mice fell down within 100 seconds because of disturbed motor coordination, such mice were counted as positive. To the control mice, 0.5% methylcellulose solution was administered.
On the technique in general: The rotarod test checks motor coordination on a turning rod.

Data set [3] has as its system subcutaneously pentetrazol-injected model (scPTZ). Description: Subcutaneously pentetrazol-injected model (scPTZ) test. In kind it is in vivo, mice. Particulars: pentetrazol 85 mg/kg s.c. after 1 hour; for responders at 50 mg/kg / responders at 100 mg/kg: Mus musculus, po, 1 h, Slc: ddY male mice, 3 per group, observed 30 minutes for clonic convulsion, read-out: scPTZ (positive number/tested number) (converted); for responders at 50 mg/kg: 50 mg/kg oral; for responders at 100 mg/kg: 100 mg/kg oral; for anticonvulsant action in subcutaneously pentetrazol-injected model (scPTZ) test: mice, oral 50 or 100 mg/kg. The method in brief: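 Pentetrazol (85 mg/kg, s.c.) was injected one hour after oral test compound at 50 or 100 mg/kg in groups of three male Slc:ddY mice weighing 20-30 g; vehicle controls got 0.5% tragacanth or 0.5% methylcellulose.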

A further data set relates to amygdala-kindling model. Description: Amygdala-kindling model in rats. In kind it is in vivo. From the text:
Test 3: Test with Amygdala-Kindling Model in Rats
Test 3 evaluates the anticonvulsant action of medicaments in rats, besides mice in Tests 1 and 2. Animal model (kindling model) used herein is a very similar model to clinical findings of focal onset seizures (i.e. simple partial seizure, complex partial seizure, and secondarily generalized tonic-clonic seizure), which is known to provide excellent clinical prediction. A chronic electrode was implanted in the cortex (frontal and posterior regions) and the amygdala of Slc: Wistar male rats (body weight 250-300 g). One week after the above operation, electrical stimulation (50 Hz, 400 μA, 1 second) into the amygdala was conducted once a day for about two weeks. The stimulation condition was determined according to the method of Loscher et al. [Epilepsy Res., 40: 63-77 (2000)]. The stimulation was continued until the seizure stage 5 in the seizure severity stages according to the method of Racine et al. [Motor seizure. Electroenceph. Clin. Neurophysiol., 32:281-294 (1972)] was observed 10 consecutive times. Kindling model was thus completed. Then, test compounds (100 mg/kg) were orally administered to this model. After an hour of administration, the rats were evaluated based on three parameters, i.e., a threshold stimulus current to induce seizure (i.e. seizure threshold), the duration of afterdischrage observed on an electroencephalogram, and seizure severity (stage scores 1-5). The results of the seizure threshold and the afterdischarge duration were shown as average percentage of change from the pretreatment value obtained before the administration of each test compound. To the control rats, 0.5% tragacanth solution was administered. Minus means decreased or shortened.

The test system of the next data set is Slc: C57BL/6J male mice. Description: Evaluation of antimanic effect (methamphetamine and chlordiazepoxide induced hyperactivity, locomotor distance). The settings on record: for The rate of the shortened locomotor-distance (% control): methamphetamine 4 mg/kg and chlordiazepoxide 10 mg/kg i.p. In kind it is in vivo. From the text: (§1) Meanwhile, there are no reports about animal models which provide a good clinical prediction to evaluate the improving efficacy for bipolar disorder. However, bipolar disorder comprises “manic state” and “depressive state”, and some animals are reported to be useful as a model to evaluate the improvement of each pathological condition individually. In general, an index of manic state is excessive hyperactivity induced by administering methamphetamine and chlordiazepoxide in combination, and that of depressive state is immobility induced by forced swimming.
Test 7: Evaluation of Antimanic Effect
Test 7 evaluates the antimanic effect of medicaments. The evaluation system is a test system whose utility has been already confirmed with a known antimanic agent which is clinically used as a mood-stabilizing drug, not as a drug for treating schizophrenia (Arban et al., Behay. Brain Res., 158:123-132, 2005, Foreman et al., Pharmacol. Biochem. Behay., 89: 523-534, 2008). Test compounds were orally administered to Slc: C57BL/6J male mice (8 mice in each group, body weight 20-26 g). After 30 minutes of administration, methamphetamine (4 mg/kg) and chlordiazepoxide (10 mg/kg) were administered intraperitoneally. Then, the mice were allowed to move freely in an acrylic cage (W 360 mm×D 230 mm×H 310 mm) for 90 minutes. The locomotor distances of the mice were measured with Ethovision software (Ver. 3.1). Among the 90 minutes, the result of the latter 60 minutes with the exception of the first 30 minute's result for adaptation to the new environment was used as data of the locomotor distance. The antimanic effect was evaluated by calculating how long locomotor distance was shortened against the control. To the control mice, 0.5% methylcellulose solution was administered.

The next data set concerns Crl: CD (SD) male rats. Description: Evaluation of antidepressant effect (forced swimming, duration of immobility). In kind it is in vivo.
Excerpt: as §1
Test 6: Evaluation of Antidepressant Effect
Test 6 is a typical test to evaluate the antidepressant activity of medicaments (Porsolt et al., Nature, 266: 730-732, 1977, Porsolt et al., Eur. J. Pharmacol., 47: 379-391, 1978). Crl: CD (SD) male rats (12 rats in each group, body weight 200-250 g) were forced to swim for 15 minutes in a water pool with 200 mm diameter. In the pool, water was filled up to a depth of 205 mm from the bottom of the pool, and thus the rats could not touch the bottom of the pool with their hind limbs. Fifteen minutes after the completion of the forced swimming, test compounds were orally administered to the rats. On the next day, the test compounds were administered to the rats at the same dose as the previous day, and the rats were put in the pool for 5 minutes at the same clock time as the previous day. […] The antidepressant effect was evaluated by calculating how long the duration of immobility was shortened against the control. To the control, 0.5% methylcellulose solution was administered.

The mark [4] stands for this setting: oral administration at a dose of 100 mg/kg.

By ED50 is commonly meant the dose at which the effect has come halfway, by size or by number of responders.

In the case of `NC(=O)Cc1ccccc1-c1cccc(F)c1` [Example 25, 2-(3′-fluorobiphenyl-2-yl)acetamide], the responders at 50 mg/kg in data set [1] and in data set [3] was 100% throughout. The responders at 100 mg/kg in data set [1] and in data set [3] was 100% throughout. Also, the “anticonvulsant action in maximum electroshock seizure (MES) model test” value (“anticonvulsant action … (MES) model test” below) in data set [1] was “anticonvulsant action was observed”. Besides, the ED50 in data set [2] was 61.9 mg/kg. Also, the “efficacy in 6 Hz psychomotor seizure model” value in data set [2] (setting [4]) was “potent efficacy”. Further, the “6 Hz (Positive number/tested number)” value in data set [2] (dose 100 mg/kg) is listed as 10/10/100. Further, the “The rate of mice which fell within 100 seconds (%)” value in the data set on Slc: ddY male mice (100 mg/kg oral) is on record as 0%; with Slc: ddY male mice (200 mg/kg oral) it was 10%; with Slc: ddY male mice (300 mg/kg oral) it was 60%; with Slc: ddY male mice (400 mg/kg oral) it was 90%. Moreover, in data set [3], the “anticonvulsant action in subcutaneously pentetrazol-injected model (scPTZ) test” value (“anticonvulsant action … (scPTZ) test” below) was “anticonvulsant action was observed”. Further, in the data set on amygdala-kindling model (100 mg/kg oral, 1 hour after administration, average percentage of change from pretreatment value), the “Seizure threshold (uA) Δ % change” value amounted to 69.4%. The “Afterdischarge duration (sec) Δ % change” value with amygdala-kindling model (100 mg/kg oral, 1 hour after administration, change from pretreatment value, minus means shortened) is −100%. In addition, in the data set with amygdala-kindling model (100 mg/kg oral, 1 hour after administration, stage scores 1-5), the Seizure severity score worked out at 0.0. Besides, in the data set on amygdala-kindling model (setting [4]), the “efficacy against the amygdala-kindling model” value is “potent efficacy”.

`NC(=O)Cc1ccccc1-c1ccccc1Cl` [Example 16, 2-(2′-chlorobiphenyl-2-yl)acetamide]: the responders at 50 mg/kg was 100% in data set [1] and 66.7% in data set [3]. The responders at 100 mg/kg in data set [1] and in data set [3] was 100% in each case. The “anticonvulsant action … (MES) model test” value in data set [1] was “anticonvulsant action was observed”. Besides, in data set [2], the ED50 amounted to 38.1 mg/kg. Also, in data set [2] (dose 50 mg), the “6 Hz (Positive number/tested number)” value was 8/10/50. For the same molecule, the “The rate of the shortened locomotor-distance (% control)” value in the data set on Slc: C57BL/6J male mice (30 mg/kg oral) is 45.7 % control; in the data set with Slc: C57BL/6J male mice (60 mg/kg oral), 69.1 % control; in the data set on Slc: C57BL/6J male mice (100 mg/kg oral), 84.9 % control. In data set [3], the “anticonvulsant action … (scPTZ) test” value is reported as “anticonvulsant action was observed”. Also, the “The rate of the shortened duration of immobility (% control)” value in the data set with Crl: CD (SD) male rats (10 mg/kg oral) was determined as 19.9 % control; with Crl: CD (SD) male rats (30 mg/kg oral), 21.9 % control.

With `Nc1nnc(-c2cccc(Cl)c2Cl)c(N)n1` [Lamotrigine, reference compound], in the data set with Slc: C57BL/6J male mice (same conditions), the locomotor distance result is “dose-dependently shortened”. For the same molecule, in the data set on Crl: CD (SD) male rats (same conditions), the duration of immobility entry is “dose-dependently shortened”.

On to `NC(=O)Cc1ccccc1-c1cc(Cl)cc(Cl)c1` [Example 71, 2-(3′,5′-dichlorobiphenyl-2-yl)acetamide], for which the responders at 50 mg/kg in data set [1] and in data set [3] was 66.7% throughout. In addition, the responders at 100 mg/kg is 100% in data set [1] and 66.7% in data set [3]. For the same molecule, in data set [1], the “anticonvulsant action … (MES) model test” value is “anticonvulsant action was observed”. Also, the ED50 in data set [2] was found to be 82.8 mg/kg. In data set [2] (dose 100 mg/kg), the “6 Hz (Positive number/tested number)” value was 7/10/100. Besides, the “The rate of mice which fell within 100 seconds (%)” value with Slc: ddY male mice (100 mg/kg oral) turned out to be 0%; with Slc: ddY male mice (200 mg/kg oral), 20%; with Slc: ddY male mice (300 mg/kg oral) it was 30%; in the data set on Slc: ddY male mice (400 mg/kg oral), 70%. In data set [3], the “anticonvulsant action … (scPTZ) test” value is “anticonvulsant action was observed”.
